Results reported in patent EP4332574A1, “SELF-ASSEMBLED CHEMOSENSORS FOR DETECTING POLYAMINES IN PHYSIOLOGICAL MEDIA AND BIOFLUIDS” (Karlsruher Institut für Technologie, priority 2022, dated 2024).

Experiments:
[1] = tested on: P5AS-BrDAP host-dye chemosensor; test: Fluorescence turn-on indicator displacement sensing assay with P5AS-BrDAP chemosensor in artificial media; assay type: binding; conditions: addition of P5AS-BrDAP
[2] = tested on: P5AS-BrDAP chemosensor; conditions: chemosensor 21.6 µM; human urine (diluted two times) and saliva (undiluted), spiked each at 5 µM
From the text: (§1) Fig. 2 Schematic illustration of established cation exchange reactions in systems wherein the known chemosensors become dysfunctional in biologically relevant media such as PBS or urine. At high salt concentrations, the signalling binding pockets of the receptor host molecule are occupied by salts and are no longer available for the detection of relevant analytes. Moreover, chemosensors self-assembled from a receptor host and dye molecules decompose at high salt concentrations as the dye is pushed out of the receptor by the salts. […] Fig. 8 Relative fluorescence intensity changes monitored at 433 nm on addition of P5AS-BrDAP chemosensor (21.6 µM) to • (a) human urine samples collected from four healthy individuals (diluted two times) and later spiked with several polyamines and polyamine mixtures (each at 5 µM) in order to simulate urine from diseased patients and • (b) human saliva sample collected from a healthy individual (undiluted) and later spiked with several polyamines and polyamine mixtures (each at 5 µM) in order to simulate saliva from diseased patients (microplate reader assay). […] Fig. 9 Relative fluorescence intensity changes monitored at 423 nm upon addition of • (a) P5AS-MDAP host-dye chemosensor and • (b) P5AS-BrDAP host-dye chemosensor to a solution of spermine (spm, 3.3 µM) in neurobasal™ medium.

[3] = tested on: P5AS-MDAP host-dye chemosensor; test: Fluorescence turn-on indicator displacement sensing assay with P5AS-MDAP chemosensor in artificial media; assay type: binding; conditions: for relative fluorescence intensity changes monitored at 423 nm: addition of P5AS-MDAP
From the text: Thereby, in the sensing assay, in the presence of polyamines, the dye is displaced from the host cavity resulting in a fluorescence "turn-on" signal.
as §1, with “salts. Fig. 3 • (a) Chemical structure of the preferred host molecule P5AS. • (b) Chemical structure of the preferred dye molecule MDAP. • (c) Chemical structure of the preferred dye molecule BrDAP.” for “salts.”

[4] = Host-dye fluorescence titration (quenching of dye emission on stepwise addition of host); assay type: binding; conditions: for binding affinity (Ka): host-dye binding interaction in surine, fluorescence monitored at 423 nm
From the text: Addition of the receptor host molecule to the dye solution results in a quenching of the dye emission upon the formation of the self-assembled P5AS-MDAP host-dye fluorescent chemosensor. Thereby, in the sensing assay, in the presence of polyamines, the dye is displaced from the host cavity resulting in a fluorescence "turn-on" signal. The involved processes show very fast binding kinetics and fast signal responses.

[5] = spermine 3.3 µM in neurobasal medium

SMILES	relative fluorescence intensity changes monitored at 423 nm ([3]; polyamine 3.3 µM in surine)	binding affinity (Ka) [4] [M⁻¹]	relative fluorescence intensity changes monitored at 423 nm ([1]; polyamine 3.3 µM in surine)	also measured
NCCCCN [Putrescine, putrescine]	does not give rise to any changes in the fluorescence intensity	–	–	–
NCCCCCN [cadaverine]	strong fluorescence enhancement	–	no significant fluorescence signal change	–
NCCCCNCCCN [spermidine]	strong fluorescence enhancement	–	no significant fluorescence signal change	–

More lines, main results first:

relative fluorescence intensity changes monitored at 423 nm ([3]; polyamine 3.3 µM in surine)	binding affinity (Ka) [4] [M⁻¹]	SMILES	relative fluorescence intensity changes monitored at 423 nm ([1]; polyamine 3.3 µM in surine)	also measured
strong fluorescence enhancement	–	NCCCNCCCCNCCCN [spermine]	strong fluorescence enhancement	relative fluorescence intensity changes monitored at 423 nm [1, 5]: strong fluorescence enhancement; relative fluorescence intensity changes monitored at 433 nm, spiked versus healthy samples [2]: clear distinction between the fluorescence signal outputs; relative fluorescence intensity changes monitored at 423 nm [3, 5]: strong fluorescence enhancement; time to fluorescence signal turn-on (displacement of MDAP from the host) ([3]; spermine 5.1 µM added to P5AS-MDAP in surine, 423 nm): within a few milliseconds
–	4.9e+06	C[n+]1cc2ccc3c[n+](C)cc4ccc(c1)c2c34 [MDAP, N,N'-dimethyl-2,7-diazapyrenium dication]	–	–
–	4.5e+08	BrCCCC[n+]1cc2ccc3c[n+](CCCCBr)cc4ccc(c1)c2c34 [BrDAP, N,N'-bis(4-bromobutyl)-2,7-diazapyrenium dication]	–	stronger binding affinity for P5AS compared to MDAP [4]: 10^2 times; binding affinity towards P5AS ([4]; order of magnitude, Figure 7a experiments in surine): 10^8 M^-1
